According to patent US11466020B2, “Compounds and compositions for inhibition and elimination of Zika infection and uses for same” (Cornell University, priority 2017, dated 2022):
Counter-ions that a name gives are not always drawn.

What was measured:
ZIKV (FSS13025 strain) = assay: qRT-PCR of total and (-) strand vRNA in hNPCs treated 48 h post-infection (FSS13025); assay type: cell-based, Zika virus; details: treatment at 48 h post-infection, 25 μM, additional 3 days
Method: (A and B) Inhibitory curve and IC50 of AQ were calculated based on the infection rate (A) and normalized cell viability (B) (n=6). (C and D) Immunocytochemistry analysis (C) and quantification of infection rate and total cell number (D) of hNPCs after ZIKV infection treated with 15 μM AQ or DMSO or mock infection (n=3). Cells were fixed and stained for ZIKV E and with DAPI. Scale bars, 100 μm. p values were calculated by unpaired two-tailed Student's t-test. *p<0.05, and ***p<0.001. (E) qRT-PCR analysis of total and replicating (−) strand of ZIKV (MR 766 strain) vRNA level in hNPCs from two additional donors. hNPCs from different donors were treated with 25 μM HH at 24 h post-infection. (F) The expression dynamics of ZIKV vRNA (FSS13025 strain) in hNPCs. qRT-PCR analysis to quantify the total and replicating (−) strand ZIKV vRNA levels in hNPCs at different time points post-infection. […] (G) qRT-PCR analysis of hNPCs that were treated with 25 μM HH or DMSO at 48 h post-ZIKV (FSS13025 strain) infection and maintained for additional 3 days. p values were calculated by unpaired two-tailed Student's t-test. *p<0.05, **p<0.01 and ***p<0.001, unless otherwise stated. […]
RNA Extraction and qRT-PCR. […] ZIKV vRNA levels were calculated using a standard curve generated using serial 10-fold dilutions of ZIKV vRNA.

[1] = tested on: human forebrain organoids; assay: Forebrain organoid proliferation, apoptosis, size and structure after ZIKV infection; assay type: cell-based
Text: Scale bars, 100 μm. […] Scale bars, 100 μm. […] Scale bars, 50 μm.
Medium was changed every other day.

ZIKV (MR766 strain) = assay: qRT-PCR of total and (-) strand vRNA in hNPCs treated 24-48 h post-infection (MR766); assay type: cell-based, Zika virus
Method: To further evaluate the therapeutic potential of HH, qRT-PCR analysis was performed to monitor the dynamics of ZIKV vRNA expression (MR766 strain) in hNPCs. Both total and replicating (−) strand of ZIKV vRNAs could be detected at 24 h post-infection, and the vRNA level kept increasing at 36 h and 48 h post-infection (FIG. 2J). […] In addition, to determine the effect of HH on hNPCs derived from different donors, 25 μM HH or DMSO control was added to the hNPCs derived from either of two additional donors at 24 h post-infection. […] Moreover, we evaluated the dynamics of ZIKV vRNA expression (FSS13025 strain) in hNPCs.
To monitor ZIKV dynamics in hNPCs, hNPCs were infected with ZIKV (MR766 strain, MOI=0.125, FSS13025 strain MOI=0.1) for 2 h, and changed to virus-free medium. The cells were maintained in NPC medium with daily medium change. The cells were lysed at the different time points and analyzed using qRT-PCR.
RNA Extraction and qRT-PCR. Total RNA of cultured cells and organs was extracted with RNeasy plus mini kit (Qiagen). vRNA from cell culture supernatant or mouse serum was extracted with QIAampe viral RNA mini kit (Qiagen). […] ZIKV vRNA levels were calculated using a standard curve generated using serial 10-fold dilutions of ZIKV vRNA.

`CN1CCC2=C[C@H](O)[C@H]3OC(=O)c4cc5c(cc4[C@H]3[C@@H]21)OCO5` [HH, hippeastrine hydrobromide] was tested, and the “total and replicating (-) strand ZIKV vRNAs in hNPCs (FSS13025)” value (ZIKV (FSS13025 strain)) was “completely suppressed”, the “ZIKV-associated proliferation (Ki67+) and apoptosis (CAS3+) defects in D20 organoids” value ([1]; 25 μM HH for 3 days) was “completely rescued” and the “ZIKV-induced structural defects in long-term organoid cultures” value ([1]; 25 μM HH, D20+18) was “successfully rescued”. For the same compound, the “cross-sectional area of ZIKV infected organoids at D20+18” value ([1]; 25 μM HH, mock 1.6, ZIKV 0.4) was 1.4 mm^2, the “neurotoxicity in forebrain organoids” value ([1]; HH compared with AQ) was “did not exhibit similar neurotoxicity as AQ” and the “total and replicating (-) ZIKV vRNA levels in hNPCs” value (ZIKV (MR766 strain); 25 μM added at 24 h, 36 h or 48 h post-infection, additional 3 days) was “successfully suppressed”. For the same compound, the “total and replicating (-) strand ZIKV vRNAs in hNPCs from two additional donors” value (ZIKV (MR766 strain); 25 μM added at 24 h post-infection) was “consistently suppressed”.
